Assay results: patent publication US7323479B2, “Methods for treatment and management of brain cancer using 1-oxo-2-(2,6-dioxopiperidin-3-yl)-4-methylisoindoline” (Celgene Corporation, priority 2002, dated 2008)
Each block holds one compound with its values, some of them ahead of it.

What was measured:
[1] = Pharmacokinetics of Actimid in relapsed/refractory multiple myeloma patients; format: in vivo, human; settings: for AUC: AUC(0-τ); for Vd/F: Vz/f; for half-life: t½
Procedure: 4-(Amino)-2-(2,6-dioxo(3-piperidyl))-isoindoline-1,3-dione (Actimid™) was administered to patients with relapsed/refractory multiple myeloma. The study was conducted in compliance with Good Clinical Practices. Patients were at least 18 years old, had been diagnosed with multiple myeloma (with paraprotein in serum and/or urine), and were considered refractory to treatment after at least two cycles of treatment, or have relapsed after two cycles of treatment.
4-(Amino)-2-(2,6-dioxo(3-piperidyl))-isoindoline-1,3-dione is administered to patients at doses of 1, 2, 5, or 10 mg/day for up to four weeks; at each dose level, three patients are initially enrolled. Dosing occurs at approximately the same time each morning; all doses are administered in the fasted state (no eating for at least two hours prior to dosing and two hours after dosing). 4-(Amino)-2-(2,6-dioxo(3-piperidyl))-isoindoline-1,3-dione doses are administered in an ascending fashion such that patients in the first cohort receive the lowest dose of 4-(amino)-2-(2,6-dioxo(3-piperidyl))-isoindoline-1,3-dione (1 mg/day) and escalation to the next higher dose level occurs only following the establishment of safety and tolerability at the current dose. If one out of three patients at any dose level experience dose limiting toxicity (DLT), three additional patients are enrolled at that dose. If none of the three additional patients experience DLT, escalation to the next dose level occurs; dose escalations continue in a similar fashion until the MTD is established or the maximum daily dose (10 mg/day) is attained. However, if one of the three additional patients enrolled experiences DLT, the MTD has been reached. If two or more of the three additional patients enrolled experience DLT, the MTD is judged to have been exceeded and three additional patients are enrolled at the preceding dose level to confirm the MTD. Once the MTD has been identified, four additional patients are enrolled at that dose level so that a total of 10 patients is treated at the MTD.
Blood sampling for analysis of pharmacokinetic parameters is performed on Days 1 and 28 according to the following sampling schedule: pre-dose, 0.25, 0.5, 0.75, 1, 1.5, 2, 2.5, 3, 4, 6, 8, 10, 12, 18, and 24 hours post-dose. An additional blood sample is collected at each weekly visit for the determination of 4-(amino)-2-(2,6-dioxo(3-piperidyl))-isoindoline-1,3-dione levels. Total urine collections are also made with urine pooled according to the following time intervals post-dose: 0 to 4, 4 to 8, 8 to 12, and 12 to 24 hours. Safety assessments are made by monitoring adverse events, vital signs, ECGs, clinical laboratory evaluations (blood chemistry, hematology, lymphocyte phenotyping, and urinalysis), and physical examination at specific times during the study.

[2] = Phase 1 study of Revimid in patients with solid tumors: dose limiting toxicity; format: in vivo; settings: initial group of 20 patients, 5 escalated to 50 mg/day over 4 weeks
Procedure: Patients who, experienced clinical benefit were permitted to continue on treatment as Named Patients.
The study design dictates that at least 3 patients must be enrolled at a dose level and have completed 28 days of treatment prior to enrollment of patients at the next higher dose level. Patients in the first cohort began dosing at 5 mg/day of 3-(4-amino-1′-oxo-1,3-dihydro-isoindol-2-yl)-piperidine-2,6-dione. […]
If, at any given dose level in either study, one out of three patients experiences toxicity, three additional patients must be treated at that particular dose. If, however, two out of six patients experience DLT, the MTD is judged to have been exceeded. No further dose escalations are to occur and additional patients are to be enrolled at the previous dose level.

[3] = tested on: metastatic melanoma; assay: Treatment of patients with metastatic melanoma; format: in vivo, human
Procedure: The dose was then increased every seven days to 10 mg/day, 25 mg/day, and 50 mg/day, respectively, for a total of four weeks on therapy.

[4] = Phase 1 studies of Revimid in refractory or relapsed multiple myeloma: dose limiting toxicity; format: in vivo
Procedure: (§1) Patients were evaluated for adverse events at each visit and the severity of these events was graded according to the National Cancer Institute (NCI) Common Toxicity Criteria. Patients were discontinued if they experienced DLT (Grade 3 or greater non-hematological, or Grade 4 hematological toxicity).

[5] = Cardiovascular and respiratory function in anesthetized dogs; format: in vivo, Beagle dogs
Text: Two groups of Beagle dogs (2/sex/group) are used.

[6] = Phase 1 studies of Revimid in refractory or relapsed multiple myeloma: pharmacokinetics; format: in vivo
Procedure: as §1
Blood and urine samples were collected for analysis of pharmacokinetic parameters on Days 1 and 28. Blood samples were collected according to the following sampling schedule: pre-dose, 0.25, 0.5, 0.75, 1, 1.5, 2, 2.5, 3, 4, 6, 8, 10, 12, 18, and 24 hours post-dose. In addition, a blood sample was collected at each weekly clinic visit for 3-(4-amino-1-oxo-1,3-dihydro-isoindol-2-yl)-piperidine-2,6-dione determination. Total urine was collected and pooled according to the following time intervals post-dose: 0 to 4, 4 to 8, 8 to 12, and 12 to 24 hours. […] Bone marrow aspirations and/or tissue biopsy are also performed at Months 3, 6 and 12 if a patient's paraprotein serum concentration or 24-hour urine protein excretion declined to the next lower level, based on best response criteria.

[7] = tested on: TNF-α, IL-1β, and IL-6; assay: LPS-stimulated production of pro-inflammatory cytokines by PBMC; format: cell-based
[8] = tested on: IL-2 and IFN-γ; assay: Augmentation of IL-2 and IFN-γ production following TCR activation of PBMC (IL-2) or T-cells (IFN-γ); format: cell-based
[9] = tested on: IL-10; assay: LPS-stimulated production of anti-inflammatory cytokine IL-10 by PBMC; format: cell-based
[10] = multiple myeloma patients, preliminary

increase in AUC(0-τ) with 5-fold increase in dose ([1]; Day 1): 3.6 fold
increase in Cmax with five-fold higher dose ([1]; Day 1): 3.2 fold
increase in AUC(0-τ) with 5-fold increase in dose ([1]; Week 4): 2.3 fold
increase in Cmax with five-fold higher dose ([1]; Week 4): 2.2 fold
decline of plasma concentrations after reaching Cmax ([1]; human, in vivo): declined in a monophasic manner
increase in AUC(0-τ) and Cmax values with increasing dose ([1]; human, in vivo): almost a dose proportional increase
AUC(0-inf) ([1]; human, in vivo, 1 mg): 153 ng·h/mL
AUC ([1]; human, in vivo, 1 mg): 134 ng·h/mL
Cmax ([1]; human, in vivo, 1 mg): 15 ng/mL
Vd/F ([1]; human, in vivo, 1 mg): 69.5 L
Tmax ([1]; human, in vivo, 1 mg, tmax): 3.3 h
half-life ([1]; human, in vivo, 1 mg): 7.3 h
AUC(0-inf) ([1]; human, in vivo, 2 mg): 279 ng·h/mL
AUC ([1]; human, in vivo, 2 mg): 250 ng·h/mL
Cmax ([1]; human, in vivo, 2 mg): 24.4 ng/mL
Vd/F ([1]; human, in vivo, 2 mg): 65.3 L
Tmax ([1]; human, in vivo, 2 mg, tmax): 2.7 h
half-life ([1]; human, in vivo, 2 mg): 6.3 h
AUC(0-inf) ([1]; human, in vivo, 5 mg): 593 ng·h/mL
AUC ([1]; human, in vivo, 5 mg): 521 ng·h/mL
Cmax ([1]; human, in vivo, 5 mg): 48.6 ng/mL
Vd/F ([1]; human, in vivo, 5 mg): 87.2 L
Tmax ([1]; human, in vivo, 5 mg, tmax): 2.3 h
half-life ([1]; human, in vivo, 5 mg): 6.5 h
Tmax ([1]; human, in vivo, median Tmax): 2.5 to 2.8 h
Tmax ([1]; human, in vivo, po, tmax): 3.6 h
half-life ([1]; human, in vivo, po): 6.2 h
Compound: Nc1cccc2c1C(=O)N(C1CCC(=O)NC1=O)C2=O (stereo not drawn) [Actimid, 4-(Amino)-2-(2,6-dioxo(3-piperidyl))-isoindoline-1,3-dione]

half-live in patients, mean ([6]; human, in vivo): 8 h
half-live in patients, ranging up to ([6]; human, in vivo): up to 17 hours
accumulation with multiple dosing ([6]; in vivo): no evidence of accumulation
shape of concentration profile ([6]; in vivo): double peaks were observed
clearance compared to healthy volunteers [6, 10]: lower
exposure (Cmax and AUC) compared to healthy male volunteers [6, 10]: slightly higher
Compound: Nc1cccc2c1CN(C1CCC(=O)NC1=O)C2=O (stereo not drawn) [Revimid, 3-(4-amino-1-oxo-1,3-dihydro-isoindol-2-yl)-piperidine-2,6-dione]
DLTs reported [2]: No DLTs
patients showing disease stabilization or a partial response ([3]; first four weeks of treatment, 5 escalated to 50 mg/day): Five of the 13
duration of response ([3]; metastatic melanoma patients): approximately six months
tumor response seen in cutaneous and subcutaneous lesions ([3]; metastatic melanoma patients): five
tumor response seen in liver ([3]; metastatic melanoma patients): one
tumor response seen in lymph nodes ([3]; metastatic melanoma patients): two
dose limiting toxicity (DLT) ([4]; first cohort of 3 patients, 5 mg/day, 28 days): without any dose limiting toxicity
tolerability ([4]; second cohort of 3 patients, 10 mg/day): tolerated treatment well
cardiovascular and respiratory changes compared to the vehicle control group ([5]; anesthetized dogs, 2, 10, and 20 mg/kg, infusion through the jugular vein, all doses): minimal
deviations in femoral blood flow, respiratory parameters, and Qtc interval ([5]; common to both the control and treated groups): not considered treatment-related
duration of the arterial blood pressure effect ([5]; low dose): approximately 15 minutes
arterial blood pressure after small increase ([5]; low dose, increase from 94 mmHg, not seen at higher doses): 101 mmHg
effect on LPS-stimulated production of TNF-α, IL-1β, and IL-6 [7]: dose-dependent inhibition
times more potent than thalidomide in augmenting the production of IL-2 and IFN-γ [8]: 50-100 times
effect on production of IL-10 [9]: increased production
